Assay results from a melting point compilation (Tetko et al.; mined from patent text by program, amines drawn as free bases though some values may be those of a salt).

SMILES	melting point [°C]
Cc1cccc2c(=O)n3c(nc12)C(=O)c1ccccc1-3	247 to 248
CSc1cccc(NC(=O)N(O)C2CCCCC2)c1	147 to 148
COc1ccc2c(c1)CCc1c-2n(-c2ccc(O[Si](C)(C)C(C)(C)C)cc2)c(=O)c2cc(OC)ccc12	194 to 195
CCN(CCOc1ccc(Cl)c2[nH]cc(Cl)c12)c1ccsc1	123 to 125
Cc1cn(-c2cccc(C(=O)CC(=O)Nc3cc(-c4ccccc4F)ccc3NC(=O)OC(C)(C)C)c2)c(C)n1	145
CC(CC(=O)N1CCCC1)Sc1cc(C(C)(C)C)c(O)c(C(C)(C)C)c1 (centres undefined)	95 to 99
CNC(=C[N+](=O)[O-])NCCc1nnc(NCCCOc2cccc(CN3CCCCC3)c2)n1C	110 to 112
COc1ccc(S(=O)(=O)CNC=O)cc1	105 to 107
O=C(NCC(=O)N1c2ccccc2N(Cc2ccccc2)C(=O)[C@H]2CCC[C@H]21)c1ccco1 (relative stereo)	169 to 170
[N-]=[N+]=NCC1OC(n2cc(C=CBr)c(=O)[nH]c2=O)CC1Cl (centres undefined)	58 to 60
CC1(C)OC(=O)Nc2cc(-c3cccc(Cl)c3)sc21	123 to 125
Cc1nc(N)nc(N)c1-c1cc(NS(C)(=O)=O)ccc1Cl	234 to 240
CCOC(=O)C=Cc1cc(OC)c(OCc2ccccc2)c(OC)c1	68 to 69
O=C1NC(=O)C(Cc2ccc(OCCN3C(=O)c4ccccc4C3=O)cc2)S1 (centres undefined)	192 to 194
CCC1=C(C)CN(C(=O)NC2COc3cc(OC)c(S(=O)(=O)NC(=O)NC)cc3C2)C1=O (centres undefined)	245 to 246
COC(=O)c1cc(N)c(F)c(Br)n1	187 to 190
CCOC(=O)Cc1ccc(C(=O)CN2CCN(c3ccncc3)CC2)cc1	122 to 124
Cc1ccc(CNC(=O)c2ccc3n2Cc2ccccc2N(C(=O)CSc2ccc(Br)cc2)C3)cc1	131 to 132
CCOC(=O)c1cc2n(c1)CN(C(=O)OCC)c1ccc(Br)cc1-2	161 to 163
O=C(Nc1cc(Cl)ccc1S(=O)(=O)c1ccccc1)N[C@@H](Cc1ccc(NC(=O)c2c(Cl)cccc2Cl)cc1)C(=O)O	242

SMILES	melting point [°C]
COc1ccc2c(c1)c(CC(=O)Oc1cccc(CO[N+](=O)[O-])c1)c(C)n2C(=O)c1ccc(Cl)cc1	115 to 117
CNC(=O)CC1CN=C(c2cc3cc(Oc4ccc(S(C)(=O)=O)nc4)c(F)c(OCCOC)c3[nH]2)S1 (centres undefined)	151 to 152
Cc1c(NC(=O)CC(C)(C)C)cc2c(c1C)OC(C)(C)C2(O)c1cccc(C(C)C)c1 (centres undefined)	136 to 137
CCOC(=O)c1cc(C)c(Cl)nc1Nc1ccccc1	116 to 118
Cc1ccc(-c2cn3cc(C(F)(F)F)ccc3n2)cc1	187 to 188
Cc1cccc(Cl)c1NS(=O)(=O)c1nc2sccn2n1	91 to 93
CCOC(=O)C1COc2c(OC)ccc([N+](=O)[O-])c2C1 (centres undefined)	66 to 68
COc1ccc(-c2cccc(C(=O)NCCO)c2)c2cc(Cc3cccc(C(F)(F)F)c3)oc12	111 to 112
COC(=O)[C@H]1[C@H](C(=O)OC)C1(Br)C=O (some centres undefined)	52
Nc1ccc(SCc2cnc3ccccn23)cc1	119 to 121
Clc1ccc(Cc2nc(-c3ccccc3)nnc2NCCN2CCCCC2)cc1	192
O=C(c1nc2ccc(O)cc2[nH]1)N1CCC(=Cc2ccccc2)CC1	148
Cc1c(-c2ccnc3cc(Cl)ccc23)c2cc(NS(C)(=O)=O)ccc2n1CC(=O)O	195 to 198
C#CCn1c(C(F)(F)F)c(C(=O)OCC)oc1=O	72
c1ccc(C2CC3(CC(c4ccccc4)N2)OCCO3)cc1 (centres undefined)	125 to 127
COc1ccc(N2CCN(c3c(C)c(C)c4c(c3C)C(O)(c3ccc(-c5ccccc5)cc3)C(C)(C)O4)CC2)cc1 (centres undefined)	182 to 184
CC(Cc1c[nH]c2ccccc12)NC(=O)NCC1CCC(c2ccccc2)(N(C)C)CC1 (centres undefined)	140 to 146
Nc1ccccc1-c1ccc(Br)cc1N	61 to 62
COc1cc2c(cc1OC)-c1c([N+](=O)[O-])sc(=N)n1CC2	220 to 221
CN(C)S(=O)(=O)N(c1ccc(C(=O)Nc2ccc(Br)cc2)cc1)C1OC(=O)c2ccccc21 (centres undefined)	244 to 246

SMILES	melting point [°C]
CC(C)(C)C(=O)c1ccc(C(=O)N(C(=O)c2ccc(C(=O)C(C)(C)C)cc2)C(=O)c2ccccc2C(=O)C(C)(C)C)cc1	185 to 188
Clc1cc(Cl)nc(N2CCCC2)n1	95 to 98
COc1ccc(S(=O)(=O)N(Cc2cccnc2)c2c(C(=O)O)cnc3snc(C)c23)cc1	234 to 236
COCc1cc(-n2cc(-c3ccc(-c4ccco4)cc3)c(C(F)(F)F)n2)ccc1S(C)(=O)=O	142 to 143
CCOC(=O)C1=C(C)NC(O)(c2ccc([N+](=O)[O-])cc2)C(C(=O)OCC)C1c1cccc([N+](=O)[O-])c1 (centres undefined)	196 to 197
COC(C)=CC(=O)Nc1cccc(OC(=O)NC(C)C)c1	210
CCNc1nc2ccc(COc3cccc(CN4CCCCC4)c3)cc2o1	105 to 106
NS(=O)(=O)c1cc(Br)c2c(c1)S(=O)(=O)NC(C1CCCCC1)N2 (centres undefined)	254 to 258
NC(=O)c1ccc([N+](=O)[O-])cc1[N+](=O)[O-]	202 to 204
CC1(CCl)CN(C2CCN(c3cccc(OC(F)(F)F)c3)C2=O)C1=O (centres undefined)	104 to 106
O=C1CCC(N2Cc3c(OCc4ccc5nccn5c4)cccc3C2=O)C(=O)N1 (centres undefined)	270 to 272
O=C(Cc1ccccc1)Nc1ccc2ccc(Cl)nc2n1	187
COc1cc2c(cc1Cl)C(O[Si](C)(C)C)(c1ccccc1Cl)C(=O)N2 (centres undefined)	211 to 212
CCOC(=O)c1oc2c(C(=O)NCCCN3CCN(c4cc(Cl)ccc4OC)CC3)cccc2c(=O)c1C	107 to 115
CCC1CC2C3CCC4=CC(=O)CCC4C3CCC2(C)C1O (centres undefined)	150 to 152
Cc1cc(NC2=NN(c3ccccc3)CC2)cc(C)c1O	154 to 158
CC(C)NC1=NS(=O)(=O)c2cc(C(C)(C)C)ccc2N1	128 to 130
NC(=O)c1nc(-c2ccc(=O)[nH]c2)c(-c2ccccc2)nc1N	215 to 220
CON(C(=O)c1cn(C)nc1C(F)F)C(C)Cc1c(Cl)sc(Cl)c1Cl (centres undefined)	70 to 72

Next, values leading:

melting point [°C]	SMILES
218 to 223	COc1cc(C(=O)O)ccc1Cc1cn(C)c2ccc(C(=O)NC[C@H](C)CC(F)(F)F)cc12
123 to 125	CSC(NCCNC(=O)OC(C)(C)C)=C(C#N)C#N
209 to 211	CCN1CS(=C2SC(=S)N(Cc3ccccc3)C2=O)c2ccccc21 (centres undefined)
112 to 113	CCOc1nc2cccc(C(=O)OC)c2n1Cc1ccc(-c2ccccc2C(=O)OC)cc1
221	Cn1c(C(F)(F)F)cc(=O)n(-c2ccc3snc(C(=O)NS(N)(=O)=O)c3c2)c1=O
180 to 183	O=C(c1ccc2[nH]ccc2c1)N1CCN(CCc2ccc3nonc3c2)CC1
164 to 166	O=C(/C=C/C=C/c1ccc(Cl)cc1)NCCCC(=O)NO
107 to 109	C=CCn1cc(-c2ccccc2)c(=O)c(-c2cccc(C(F)(F)F)c2)c1
214	Cc1nn(C2=C(F)CC(F)(C#N)C=C2)c(=O)[nH]c1=O (centres undefined)
128 to 129	Brc1ccccc1-n1cnc2cnc3ccc(-c4ccccc4)cc3c21
144	COc1ccc(CNC(=O)[C@@H](NC(=O)[C@H](NCc2ccc(OC)c(OC)c2)[C@H](O)[C@H](Cc2ccccc2)NC(=O)OC(C)(C)C)C(C)C)c(O)c1
91 to 92	O=C(O)CCc1ccc(OCCc2ccccc2)cc1
161 to 167	CC1Cc2cc(S(N)(=O)=O)cc(C(=O)NCC3CCCN3Cc3ccccc3)c2O1 (centres undefined)
145 to 150	CN(C)S(=O)(=O)Cc1ccccc1S(N)(=O)=O
58 to 59	O=C(CCO)NCc1ccc2ccn(C3CCN(CCc4ccccc4F)CC3)c2c1
293	Cc1ccc(N2C(=O)C(Cl)=C(C(=O)c3ccc(C(C)C)cc3)C2c2ccc(OC(F)(F)F)cc2)nn1 (centres undefined)
298 to 300	O=C1CCC(c2ccc3[nH]c(-c4cccnc4)cc3c2)=NN1
128 to 130	Cc1noc(C(=O)N2CCCCC2)c1C(=O)O

melting point [°C]	SMILES
180 to 181	Cc1c(COC(=O)N(c2ccccc2)c2ccccc2)cccc1OCC(=O)O
132 to 134	COc1nc(C)c(C)cc1NC(=O)N1CCN(C(c2ccccc2)c2ccccc2)CC1
97 to 101	CN(C)C(=O)CCCOc1ccc2c(c1)C[C@@H](NC(=O)OC(C)(C)C)CC2
220 to 221	CCOC(=O)c1cnc(Nc2ccccc2OCC)[nH]c1=O
153 to 156	CC(C)(C)NC(=O)[C@@H]1C[C@H](Cl)CN1C(=O)[C@@H](O)[C@H](Cc1ccccc1)NC(=O)[C@H](CC(N)=O)NC(=O)c1cnc2cc([N+](=O)[O-])ccc2n1
213 to 214	COc1ccc(/C=C/c2ccc3c(=O)n(-c4ccccn4)ncc3c2)cc1
142 to 144	Cc1ccc(Cl)cc1N1C(=O)CN(C(C)C)C1=S
129 to 131	Cc1ccc2oc(=O)c(C(=O)O)c(-c3ccccc3)c2c1
157	CCN(CCOc1ccc(NC(=O)c2cccc3c(=O)c4ccccc4[nH]c23)cc1)Cc1ccccc1
169 to 171	CC(C)(C)OC(=O)Nc1ccc(-c2ccc(Cl)c(Cl)c2)cc1N
242 to 244	NC(=O)c1ccccc1-c1cc([N+](=O)[O-])ccc1-c1ccc([N+](=O)[O-])cc1
154 to 156	CCOC(=O)CS(=O)(=O)c1cc(NS(=O)(=O)c2cccs2)c2ccccc2c1O
51 to 52	CCOC(=O)CCC(=O)c1ccc2c(c1)CCC2
108 to 110	CCOc1ccccc1OCC1(O)CCNC1 (centres undefined)
146 to 147	O=C(Nc1cccc(Cl)c1)NN1CC=CCC1
104 to 107	CC(C(O)c1ccc(N)cc1)N1CCC(Cc2ccccc2)CC1 (single isomer, unassigned; (-))
154 to 156	CC(C)c1nc(-c2ncn3c2C(C)(C)N(C(=O)N2CCCC2)c2cc(F)ccc2-3)no1
